Values quoted from earlier work in patent US20250360221A1 (priority 2025, published 2025).
“Also recorded” adds a separate entry of the source. Structures can show the parent of a compound that is named as a salt. Where two headings read alike, the source gives them in different places.

What was measured:
[1] = across the human BBB; transporter type named
[2] = animals, prior art
[3] = humans
μ-opioid receptor = μ-opioid receptor (Homo sapiens, UniProt P35372)
[4] = system: patients with severe cancer pain
humans = settings: epidural injections
[5] = system: patients suffering from cancer pain; settings: continuous intrathecal infusion for two weeks
proteolytic enzymes = settings: compared to other opioid peptides
[6] = intrathecal, 3 mg, patients with severe cancer pain

μ-opioid receptor, sequence (P35372 whole entry, species assumed): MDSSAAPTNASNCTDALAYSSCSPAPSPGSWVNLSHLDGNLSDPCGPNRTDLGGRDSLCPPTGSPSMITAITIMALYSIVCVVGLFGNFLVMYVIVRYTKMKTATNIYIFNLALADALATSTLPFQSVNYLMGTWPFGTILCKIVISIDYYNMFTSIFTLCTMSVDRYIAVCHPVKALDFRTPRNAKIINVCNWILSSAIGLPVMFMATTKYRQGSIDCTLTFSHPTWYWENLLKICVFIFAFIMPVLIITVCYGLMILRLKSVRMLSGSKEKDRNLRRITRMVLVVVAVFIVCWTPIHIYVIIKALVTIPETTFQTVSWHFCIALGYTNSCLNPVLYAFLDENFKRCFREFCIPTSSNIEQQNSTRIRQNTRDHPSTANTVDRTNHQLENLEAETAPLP

## CC(C)CCC[C@@H](C)[C@H]1CC[C@H]2[C@@H]3CC=C4C[C@@H](O)CC[C@]4(C)[C@H]3CC[C@]12C [Cholesterol]
[1]
  Active Transport: + lipid

## CC/C=C\C/C=C\C/C=C\C/C=C\C/C=C\C/C=C\CCC(=O)O [DHA, docosahexaenoic acid]
[1]
  Active Transport: + protein

## O=C1O[C@H]([C@@H](O)CO)C(=O)C1=O [Dehydroascorbic acid]
[1]
  Active Transport: + GLUT
[2]
  crossing of the BBB: crosses via GLUT1 transporter the BBB

## CC(=O)Oc1ccc2c3c1O[C@H]1[C@@H](OC(C)=O)C=C[C@H]4[C@@H](C2)N(C)CC[C@@]341 [Diacetylmorphine]
[3]; prior art
  crossing of the BBB: crosses the BBB

## CC/C=C\C/C=C\C/C=C\CCCCCCCC(=O)O [Linolenic acid]
[1]
  Active Transport: + lipid

## O=C1NC(c2ccccc2)(c2ccccc2)C(=O)N1COP(=O)(O)O [fosphenytoin]
[3]; prior art
  crossing of the BBB: crosses the BBB

## Cc1cc(OCC(=O)O)cc(C)c1Cc1ccc(O)c(C(C)C)c1 [sobetirome]
[3]; prior art
  crossing of the BBB: crosses the BBB

## CCOC(=O)CC(O)(CC(=O)OCC)C(=O)OCC [triethyl citrate]
[3]; prior art
  crossing of the BBB: probably crosses the BBB

## α endorphin
μ-opioid receptor
  analgesic activity: not analgesic

## β-endorphin
[4]; intrathecal or epidural administration to humans
  respiratory depression: no evidence of respiratory depression
[4]; [6]
  adverse effects: without major adverse effects
  duration of analgesia: approximately 33.4 hours
humans
  duration of analgesia: 19.5 h
  side effects: without major side effects
[5]
  analgesia: profound analgesia
  tolerance or respiratory depression: did not demonstrate tolerance; also recorded: no evidence of tolerance or respiratory depression
Proteolytic enzymes
  resistance to degradation by proteolytic enzymes / peptidases: resistant to degradation by proteolytic enzymes; also recorded: quite stable and resistant to many peptidases
animals; intracerebroventricular administration
  respiratory depression: reports of respiratory depression
animals; intracerebroventricular injection
  tolerance: tolerance develops
[3]; administered intravenously
  crossing of the BBB: does not cross the BBB

## β-endorphin (1-27) (YGGFMTSEKSQTPLVTLFKNAIIKNAY; Beta-endorphin; UniProt P01189 237-263, looked up, fragment) [shorter fragment of β-endorphin]
μ-opioid receptor
  potency compared to β-endorphin (1-31): less potent

## γ endorphin: γ endorphin, stated not analgesic (YGGFMTSEKSQTPLVTL; Beta-endorphin gamma-endorphin; UniProt P01189 237-253, looked up, fragment)
μ-opioid receptor
  analgesic activity: not analgesic
